# Laboratory results reported in patent publication EP4628519A1, “ORGANOGERMANIUM(IV) CARBOXYLATES AND MIXTURES OF GERMANIUM CARBOXYLATES WITH ORGANIC ACID ANHYDRIDES AS CATALYSTS” (Technische Universität Graz, priority 2024, dated 2025).
# Tests used:
# [1] = Solubility of the germanium carboxylates in solvents (gravimetry or NMR)
# [2] = Stability in water; conditions: result in words
compound,measurement,setting,value
CC(=O)OC(=O)C[CH2][Ge]([O]C(C)=O)([O]C(C)=O)[O]C(C)=O [(PAA)Ge(OAc)3],solubility in organic solvents,[1]; result in words,good soluble
COC(=O)C[CH2][Ge]([O]C(C)=O)([O]C(C)=O)[O]C(C)=O [(PME)Ge(OAc)3],solubility in organic solvents,[1]; result in words,good soluble
"CC(=O)[O][Ge]([O]C(C)=O)([O]C(C)=O)[O]C(C)=O [Ge(OAc)4, germanium(IV) tetraacetate]",stability in water,[2],stable
same,solubility in H2O,"[1]; H2O, result in words",good soluble
same,m(Ge(OAc)4),"[1]; Solvent Benzene, Method NMR",2.7 g/L
same,m(Ge(OAc)4),"[1]; Solvent Chloroform, Method NMR",4.8 g/L
same,m(Ge(OAc)4),"[1]; Solvent DCM, Method Gravimetry",4.2 g/L
same,m(Ge(OAc)4),"[1]; Solvent H2O, Method Gravimetry",170 g/L
same,m(Ge(OAc)4),"[1]; Solvent THF, Method Gravimetry",4.3 g/L
same,m(Ge(OAc)4),"[1]; Solvent Toluene, Method Gravimetry",2.6 g/L
same,solubility,"[1]; in toluene, at room temperature",2600 µg/mL
same,solubility in organic solvents,[1]; result in words,poorly soluble
"CCCCCCCCCCCC(=O)[O][Ge]([O]C(=O)CCCCCCCCCCC)([O]C(=O)CCCCCCCCCCC)[O]C(=O)CCCCCCCCCCC [Ge(OLau)4, germanium(IV) tetralaurate]","solubility, times higher",[1]; Ge(OLau)4 relative to Ge(OAc)4,around 2 times
same,solubility,"[1]; in benzene, determined via NMR",11000 µg/mL
same,solubility in organic solvents,[1]; result in words,poorly soluble
CC(=O)[O][Ge]([O]C(C)=O)([O]C(C)=O)[c]1ccccc1 [PhGe(OAc)3],solubility in organic solvents,[1]; result in words,good soluble
